From PubChem BioAssay AID179 (DTP/NCI, 2004)
Active and inactive are the calls of the source.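 Rule for the calls: active = compounds giving half or more protection of infected cells from virus-caused growth loss, again on retest; inactive = the rest.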

Tested on: CEM cells HIV-1 protection, formazan growth assay
Assay: NCI AIDS Antiviral Assay
Conditions: for IC50: measured here: growth of uninfected CEM cells
Procedure, shortened: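 Protection of CEM cells against HIV-1 measured as cell growth via soluble formazan read-out, with five concentrations tested on both infected and uninfected cells; failure to protect may reflect toxicity.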

| SMILES | EC50 [µM] | IC50 [µM] | outcome |
| --- | --- | --- | --- |
| O=C(O)COc1ccc(C(=O)/C(SS/C(C(=O)c2ccc(OCC(=O)O)c(Cl)c2Cl)=C2\C=C(c3ccccc3Cl)SS2)=C2/C=C(c3ccccc3Cl)SS2)c(Cl)c1Cl | > 35.5 | > 35.5 |  |
| CN(C)Cc1cc(C23CC4CC(CC(C4)C2)C3)cc(-c2ccccc2)c1O |  |  | inactive |
| COC1(CC[C@@H](C)COC2OC(CO)C(O)C(O)C2O)O[C@H]2C[C@H]3[C@@H]4CC=C5C[C@@H](OC6OC(CO)C(OC7OC(C)C(O)C(O)C7O)C(O)C6OC6OC(C)C(O)C(O)C6O)CC[C@]5(C)[C@H]4CC[C@]3(C)[C@H]2[C@@H]1C (stereo not given in full) | > 200 | 2.57 |  |
| CCC1NC(N=Nc2ccc([N+](=O)[O-])cc2)(P(=O)(OC(C)C)OC(C)C)OC1=O (stereo not given) | > 219 | > 219 |  |
| N[C@@H](Cc1ccc(O)c(O)c1)C(=O)O | > 200 | 51.3 |  |
| O=C(O)CCCCCCCCCCCBr | 37.2 | 162 |  |
| C=COC(=O)N1C2CCCC(Cl)(C(C)=O)C1CC2 (stereo not given) | > 200 | 55 |  |
| CN1CC[C@@H](c2ccccc2)[C@@H](O)C1 |  |  | inactive |
| COC1=C(C)C(=O)c2nccc(C)c2C1=O |  |  | inactive |
| Cc1cc(O)c(C=NC(=S)c2cccnc2)c(=O)o1 | > 200 | 77.6 |  |
| CC(C)CCC[C@@H](C)[C@H]1CC[C@H]2[C@@H]3CC[C@H]4CC5(C[C@]4(C)[C@H]3CC[C@]12C)Nc1ccccc1S5 (stereo not given in full) | > 20 | > 20 |  |
| CC(C)OC(=O)c1ccc(CCc2cc(O)c(Br)cc2O)cc1 | > 200 | 8.32 |  |
| CCCNC(=O)N(C)S(=O)(=O)c1ccc(Cl)cc1 |  |  | inactive |
| O=C(CCCl)N1CCN(C(=O)CCCl)c2c1c1ccccc1c1ccccc21 | > 200 | 3.02 |  |
| Cc1ncc([N+](=O)[O-])n1CCNC(=O)CCCn1ccnc1[N+](=O)[O-] |  |  | inactive |
| Clc1cccc(N2CCN(CCCN3CCc4c([nH]c5ccccc45)C3c3cccnc3)CC2)c1 (stereo not given) | > 5.37 | > 5.37 |  |
| Cc1ccc(N=C2SC(=S)N(CCC[N+](C)(C)C)C2=Nc2ccc(C)cc2)cc1 | > 200 | 14.1 |  |

| SMILES | EC50 [µM] | IC50 [µM] | outcome |
| --- | --- | --- | --- |
| O=c1c(-c2c(-c3ccccc3)oc3ccc(Cl)cc3c2=O)c(-c2ccccc2)oc2ccc(Cl)cc12 | > 200 | > 200 |  |
| CCOC(=O)/C(=C\c1cccc(Cl)c1)P(=O)(OCC)OCC | > 380 | 81.3 |  |
| O=C(O)c1cc2c(ncc3c(=O)n(-c4ccccc4)[nH]c32)s1 | > 115 | > 115 |  |
| ClCCc1ccccc1CC1=NCCc2ccccc21 | > 200 | 36.3 |  |
| C=CCOc1ccc(C2c3c([nH][nH]c3=O)CC(O)(OCC)C2C(=O)OCC)cc1OC (stereo not given) | > 200 | > 200 |  |
| O=Nc1ccc(O)cc1Cc1ccccc1 | > 200 | 3.63 |  |
| Cc1nn(C(=O)c2ccncc2)c2c1C(c1ccccc1[N+](=O)[O-])SC(N)=N2 (stereo not given) |  |  | inactive |
| O=C1OC(c2ccccc2)=N/C1=C\c1cccc2ccccc12 | > 120 | > 120 |  |
| CC(C)(C)c1cc(C(=O)[O-])c([OH2+])c(C(C)(C)C)c1.CC(C)(C)c1cc(C(=O)[O-])c([OH2+])c(C(C)(C)C)c1.[Mn+2] | > 85.1 | 33.9 |  |
| Cc1ccc2nc(CN3CCCC(O)C3)cc(=O)n2c1 (stereo not given) | > 200 | > 200 |  |
| CC(C)[Si](OC1=C(c2ccccc2)C(NC(=O)/C=C/c2ccc([N+](=O)[O-])cc2)CCC1)(C(C)C)C(C)C (stereo not given) | > 200 | > 200 |  |
| Cc1ccc(-c2cc(O)c3nc4ccccc4n3c2)cc1 | > 200 | > 200 |  |
| O=C1[C@@H]2CC(O)[C@@H]3C(=O)[C@@H]4CC(O)[C@H]1[C@@H]4[C@H]23 (stereo not given in full) | > 1120 | > 1120 |  |
| COc1c(O)cc2oc(-c3ccc(O)c(O)c3)cc(=O)c2c1O | > 38 | 22.9 |  |
| COc1cc2oc(-c3ccc(O)cc3O)c(CC=C(C)C)c(=O)c2c(O)c1/C=C/C(C)C | > 200 | 4.79 |  |
| CN1C(=O)C2(C#N)C(C)(C)C2(C#N)C1=O (stereo not given) | > 200 | > 200 |  |
